Experimental data reported in PubChem BioAssay AID2060912 (Molecular Pharmacology Branch, DTP, NCI, 2025).

Tested on: HUVEC/MSC spheroids viability
Experiment: Human HUVEC/MSC cell line growth inhibition [KRAS2];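 for viability, T/C: percent of DMSO vehicle control luminescence so 100% = untreated viability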
Conditions: for IC50: curve of first compound; for viability, T/C: stronger effect = lower value
From the text: Multicellular complex tumor spheroid response to RAS pathway inhibitors in combination with a targeted agents in patient-derived cell lines with oncogenic KRAS variants from multiple cancer types
A high-throughput screen of multi-cell type tumor spheroids was designed to identify active combinations of targeted small molecules and KRAS pathway inhibitors. Complex spheroids include a stromal component modeled by human endothelial cells (HUVEC) and fibroblasts modeled by human mesenchymal stem cells (MSCs). The concentration ranges selected for each drug and investigational agent were based upon clinically achievable concentrations if the clinical Cmax of the agent was known. * [This particular assayID is a followup dataset requested by reviewers of the manuscript. It is a test of the HUVEC and MSC without the tumor cells, and was conducted using different drug plates and a different plate layout.]
Compounds. The drugs and investigational agents: BI-3406 (NSC825286), BAY-293 (NSC824723), batoprotafib (TNO155; NSC825523), sotorasib (AMG 510; NSC818433), MRTX1257 (NSC819558), elimusertib (BAY 1895344; NSC800525), molibresib (GSK525762; NSC774829), temuterkib (LY3214996; NSC803410), venetoclax (NSC766270), alisertib (NSC759677), olaparib (NSC753686), talazoparib (NSC767125), erdafitinib (NSC781556), ipatasertib (NSC767898), cabozantinib (NSC761068), nintedanib (NSC756659), abemaciclib (NSC768073), docetaxel (NSC628503), trametinib (NSC758246), and sapanisertib (NSC764658) were obtained from the National Cancer Institute (NCI) Developmental Therapeutics Program Chemical Repository. The FDA-approved anticancer drug set is available from the Developmental Therapeutics Program. […] The stock solutions were prepared in dimethyl sulfoxide (DMSO, Sigma-Aldrich, St. Louis, MO, cat. D2650) at 800-fold the tested concentration and stored at -70 degrees C prior to their use. All drugs and investigational agents were tested over a range starting from a high concentration at or near the clinical Cmax and decreasing in half-log increments. If the clinical Cmax for an agent had not been determined, the highest concentration tested was 10 microM.
Cell Culture. All cells were maintained in an incubator at 37 degrees C and 5% CO2 with 95% humidity. The PDC lines were cultured according to standard operating procedures established by the NCI PDMR (https://pdmr.cancer.gov/sops/default.htm). Briefly, all PDCs were thawed and cultured in Matrigel-coated flasks prepared with a working solution of 1X Ham's F-12 nutrient mix, without supplementation (Invitrogen, Waltham, MA, cat. 11765054), 100 U/mL penicillin-streptomycin (Invitrogen, cat. 15140122), and 2.5% Matrigel (Corning Inc., Corning, NY, cat. 354248) for the first three passages. All PDCs were cultured in complete DMEM/F-12 media containing advanced DMEM/F-12 (Invitrogen, cat. 12634028), 4.9% defined fetal bovine serum, heat inactivated (HyClone Laboratories Inc., Logan, UT, cat. SH30070.03HI), 389 ng/mL hydrocortisone (Sigma-Aldrich, cat. H4001), 9.7 ng/mL human EGF recombinant protein (Invitrogen, cat. PHG0313), 23.4 microg/mL adenine (Sigma-Aldrich, cat. A2786), 97.3 U/mL penicillin-streptomycin (Invitrogen, cat. 15140122), 1.9 mM L-glutamine (Invitrogen, cat. 25030081), and 9.7 microM Y-27632 dihydrochloride (Tocris Bioscience, Bristol, United Kingdom, cat. 1254). The PDCs were cultured in complete DMEM/F12 media without 9.7 microM Y-27632 dihydrochloride for at least two passages prior to the screen. The established cell line HOP-62 was cultured in RPMI 1640 medium, HEPES (Invitrogen, cat. 22400105) with 10% defined fetal bovine serum (HyClone Laboratories Inc., cat. SH30070.03) and 2 mM L-glutamine (Invitrogen, cat. 25030081). The pooled donor HUVEC were cultured in endothelial cell growth medium 2 (PromoCell, Heidelberg, Germany, cat. C-22011) and the hMSC were cultured in mesenchymal stem cell growth medium 2 (PromoCell, cat. C-28009). […]

[1] = second compound 0.0316 µM, first compound 0.0316 µM
[2] = second compound 0.0316 µM, first compound 0.1 µM
[3] = second compound 0.1 µM, first compound 0.0316 µM
[4] = second compound 0.1 µM, first compound 0.1 µM
[5] = second compound 0.316 µM, first compound 0.0316 µM
[6] = second compound 0.316 µM, first compound 0.1 µM
[7] = second compound 1 µM, first compound 0.0316 µM
[8] = second compound 1 µM, first compound 0.1 µM
[9] = second compound 3.16 µM, first compound 0.0316 µM
[10] = second compound 3.16 µM, first compound 0.1 µM
[11] = second compound 10 µM, first compound 0.0316 µM
[12] = second compound 10 µM, first compound 0.1 µM

CN(C)C/C=C/C(=O)Nc1cc2c(Nc3ccc(F)c(Cl)c3)ncnc2cc1O[C@H]1CCOC1 + C=CC(=O)N1CCN(c2nc(=O)n(-c3c(C)ccnc3C(C)C)c3nc(-c4c(O)cccc4F)c(F)cc23)C(C)C1
IC50 (second compound 0.0316 µM): > 0.1 µM
IC50 (second compound 0.1 µM): > 0.1 µM
IC50 (second compound 0.316 µM): > 0.1 µM
IC50 (second compound 1 µM): > 0.1 µM
IC50 (second compound 3.16 µM): > 0.1 µM
IC50 (second compound 10 µM): > 0.1 µM
viability, T/C (second compound 0.0316 µM, first compound 0.000316 µM): 98.4%
viability, T/C (second compound 0.0316 µM, first compound 0.001 µM): 115%
viability, T/C (second compound 0.0316 µM, first compound 0.00316 µM): 97%
viability, T/C (second compound 0.0316 µM, first compound 0.01 µM): 84.3%
viability, T/C [1]: 91.4%
viability, T/C [2]: 88.9%
viability, T/C (second compound 0.1 µM, first compound 0.000316 µM): 116%
viability, T/C (second compound 0.1 µM, first compound 0.001 µM): 107%
viability, T/C (second compound 0.1 µM, first compound 0.00316 µM): 85.7%
viability, T/C (second compound 0.1 µM, first compound 0.01 µM): 80.1%
viability, T/C [3]: 111%
viability, T/C [4]: 81%
viability, T/C (second compound 0.316 µM, first compound 0.000316 µM): 108%
viability, T/C (second compound 0.316 µM, first compound 0.001 µM): 109%
viability, T/C (second compound 0.316 µM, first compound 0.00316 µM): 87.3%
viability, T/C (second compound 0.316 µM, first compound 0.01 µM): 92.8%
viability, T/C [5]: 96.8%
viability, T/C [6]: 100%
viability, T/C (second compound 1 µM, first compound 0.000316 µM): 107%
viability, T/C (second compound 1 µM, first compound 0.001 µM): 119%
viability, T/C (second compound 1 µM, first compound 0.00316 µM): 105%
viability, T/C (second compound 1 µM, first compound 0.01 µM): 124%
viability, T/C [7]: 112%
viability, T/C [8]: 110%
viability, T/C (second compound 3.16 µM, first compound 0.000316 µM): 107%
viability, T/C (second compound 3.16 µM, first compound 0.001 µM): 129%
viability, T/C (second compound 3.16 µM, first compound 0.00316 µM): 114%
viability, T/C (second compound 3.16 µM, first compound 0.01 µM): 118%
viability, T/C [9]: 113%
viability, T/C [10]: 131%
viability, T/C (second compound 10 µM, first compound 0.000316 µM): 128%
viability, T/C (second compound 10 µM, first compound 0.001 µM): 122%
viability, T/C (second compound 10 µM, first compound 0.00316 µM): 145%
viability, T/C (second compound 10 µM, first compound 0.01 µM): 97.3%
viability, T/C [11]: 124%
viability, T/C [12]: 106%

O=C(c1cc(Cc2n[nH]c(=O)c3ccccc23)ccc1F)N1CCN(C(=O)C2CC2)CC1 + C=CC(=O)N1CCN(c2nc(=O)n(-c3c(C)ccnc3C(C)C)c3nc(-c4c(O)cccc4F)c(F)cc23)C(C)C1
IC50 (second compound 0.0316 µM): > 10 µM
IC50 (second compound 0.1 µM): > 10 µM
IC50 (second compound 0.316 µM): > 10 µM
IC50 (second compound 1 µM): > 10 µM
IC50 (second compound 3.16 µM): > 10 µM
IC50 (second compound 10 µM): > 10 µM
viability, T/C [1]: 104%
viability, T/C [2]: 109%
viability, T/C (second compound 0.0316 µM, first compound 0.316 µM): 125%
viability, T/C (second compound 0.0316 µM, first compound 1 µM): 85.1%
viability, T/C (second compound 0.0316 µM, first compound 3.16 µM): 95%
viability, T/C (second compound 0.0316 µM, first compound 10 µM): 104%
viability, T/C [3]: 114%
viability, T/C [4]: 107%
viability, T/C (second compound 0.1 µM, first compound 0.316 µM): 95.3%
viability, T/C (second compound 0.1 µM, first compound 1 µM): 107%
viability, T/C (second compound 0.1 µM, first compound 3.16 µM): 133%
viability, T/C (second compound 0.1 µM, first compound 10 µM): 99.2%
viability, T/C [5]: 112%
viability, T/C [6]: 122%
viability, T/C (second compound 0.316 µM, first compound 0.316 µM): 98.2%
viability, T/C (second compound 0.316 µM, first compound 1 µM): 114%
viability, T/C (second compound 0.316 µM, first compound 3.16 µM): 115%
viability, T/C (second compound 0.316 µM, first compound 10 µM): 105%
viability, T/C [7]: 128%
viability, T/C [8]: 104%
viability, T/C (second compound 1 µM, first compound 0.316 µM): 124%
viability, T/C (second compound 1 µM, first compound 1 µM): 120%
viability, T/C (second compound 1 µM, first compound 3.16 µM): 126%
viability, T/C (second compound 1 µM, first compound 10 µM): 118%
viability, T/C [9]: 148%
viability, T/C [10]: 118%
viability, T/C (second compound 3.16 µM, first compound 0.316 µM): 146%
viability, T/C (second compound 3.16 µM, first compound 1 µM): 137%
viability, T/C (second compound 3.16 µM, first compound 3.16 µM): 116%
viability, T/C (second compound 3.16 µM, first compound 10 µM): 125%
viability, T/C [11]: 127%
viability, T/C [12]: 140%
viability, T/C (second compound 10 µM, first compound 0.316 µM): 145%
viability, T/C (second compound 10 µM, first compound 1 µM): 108%
viability, T/C (second compound 10 µM, first compound 3.16 µM): 126%
viability, T/C (second compound 10 µM, first compound 10 µM): 120%
